Measurements from PubChem BioAssay (NCI).
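Five concentrations, 48 hours, 96-well plates. GI50 is the concentration that inhibits growth by half. TGI denotes the concentration required for complete inhibition of growth.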

What was measured:
Test in all cases: NCI tumour cell line growth inhibition, 48 h
[1] = system: A549 NSCLC
[2] = system: HS 578T breast
[3] = system: IGROV1 ovarian
[4] = system: LOX IMVI melanoma
[5] = system: MALME-3M melanoma
[6] = system: RPMI-8226 leukemia
[7] = system: RXF 393 renal
[8] = system: SNB-75 CNS
[9] = system: SW-620 colon
[10] = system: UACC-62 melanoma

| SMILES | GI50 [1] [µM] | TGI [1] [µM] | GI50 [2] [µM] | TGI [2] [µM] | GI50 [3] [µM] | TGI [3] [µM] | GI50 [4] [µM] | TGI [4] [µM] | GI50 [5] [µM] | TGI [5] [µM] | GI50 [6] [µM] | TGI [6] [µM] | GI50 [7] [µM] | TGI [7] [µM] | GI50 [8] [µM] | TGI [8] [µM] | GI50 [9] [µM] | TGI [9] [µM] | GI50 [10] [µM] | TGI [10] [µM] |
| --- | --- | --- | --- | --- | --- | --- | --- | --- | --- | --- | --- | --- | --- | --- | --- | --- | --- | --- | --- | --- |
| O=C(Nc1cccc(-n2ccc3c(NC(=O)c4ccccc4)nccc32)c1)Nc1cc(C(F)(F)F)cc(C(F)(F)F)c1 | 1.97 | > 50 | 1.44 | > 50 | 2.46 | > 50 | 2.12 | > 50 | 3.09 | 35.8 | 1.13 | 2.85 | 1.16 | 3.17 | 1.09 | 3.89 | 2.06 | > 50 | 2 | 13 |
| Nn1c(COc2cccc(OCc3n[nH]c(=S)n3N)c2)n[nH]c1=S |  | > 100 |  | > 100 |  | > 100 |  | > 100 |  | > 100 |  | > 100 |  | > 100 |  | > 100 |  | > 100 |  | > 100 |
| COc1ccc2c(CCN)c(C(=O)O)[nH]c2c1 |  | > 100 |  | > 100 |  | > 100 |  | > 100 |  | > 100 |  | > 100 |  | > 100 |  | > 100 |  | > 100 |  | > 100 |
| C[C@H](CCC(=O)NCCS(=O)(=O)O)[C@H]1CC[C@H]2[C@@H]3CC[C@@H]4C[C@H](O)CC[C@]4(C)[C@H]3CC[C@]12C |  | > 100 |  | > 100 |  | > 100 |  | > 100 |  | > 100 |  | > 100 |  | > 100 |  | > 100 |  | > 100 |  | > 100 |
| Cn1c(=O)c(C(=O)Nc2nc(C34CC5CC(CC(C5)C3)C4)cs2)c(O)c2ccccc21 |  | > 100 |  | > 100 |  | > 100 |  | > 100 |  | > 100 |  | > 100 |  | 65 |  | > 100 |  | > 100 |  |  |
| O=S(=O)(c1ccccc1)n1c2ccc(Br)cc2c2nc3ccccc3nc21 |  | > 100 |  | > 100 |  | > 100 |  | > 100 |  | > 100 |  | > 100 |  | > 100 |  | > 100 |  | > 100 |  | > 100 |
| CC(=O)OCCCOCn1c(Cc2ccccc2)c(C)c(=O)[nH]c1=O |  | > 100 |  | > 100 |  | > 100 |  | > 100 |  | > 100 |  | > 100 |  | > 100 |  | > 100 |  | > 100 |  | > 100 |
| Oc1ccc(-c2nc(-c3cccnc3)c(-c3ccc(Cl)cc3)[nH]2)cc1O |  | 54.1 |  | 36.4 |  | 18.6 |  | 30.1 |  | 27 |  | > 100 |  | 25.6 |  | 20.2 |  | 27.2 |  | 23.3 |
| CC(C)/C(Cl)=N\OC(=O)Nc1ccccc1F |  | 35.6 |  | > 69.3 |  | 33.4 |  | 6.92 |  | 8.72 |  | 92.6 |  | 9.97 |  | 23.1 |  | 3.59 |  | 36.6 |
| CCCCC(C#N)(OP1(=O)OC(c2ccccc2)C(C)N1C)c1ccccc1 (centres undefined) |  | 44.3 |  | 39.3 |  | 32.3 |  | 36.7 |  | 30.6 |  | 53.2 |  | 33.1 |  | 37.3 |  | 34.3 |  | 29.4 |
| CC1(C)N=C(C(N)=O)c2ncn(N)c2N1 |  | > 100 |  | > 100 |  | > 100 |  | > 100 |  | > 100 |  | > 100 |  | > 100 |  | > 100 |  | > 100 |  | > 100 |
| C[C@]12CC[C@H]3[C@@H](CC=C4C[C@@H](N5CCCC5)CC[C@@]43C)[C@@H]1C[C@H](N1CCOCC1)[C@@H]2O |  | > 100 |  | > 100 |  | > 100 |  | > 10 |  | > 100 |  | > 100 |  | > 100 |  | > 100 |  | > 100 |  | > 100 |
| CC(=O)N=C1N(/C=C2\C(=O)Oc3ccccc3C2=O)C(=O)/C(=C/c2ccc(OC(C)=O)cc2)N1C |  | > 100 |  | > 100 |  | > 100 |  | > 100 |  | > 100 |  | > 100 |  | > 100 |  | > 100 |  | > 100 |  | > 100 |
| CCCCC(=O)NS(=NC(=O)c1ccccc1)C(Cl)(Cl)Cl (centres undefined) |  | > 100 |  | > 100 |  | > 100 |  | > 100 |  | > 100 |  | > 100 |  | > 100 |  | > 100 |  | > 100 |  | > 100 |
| N/C(=N\S(=O)(=O)c1ccc(S(=O)(=O)c2ccccc2)s1)Nc1ccc(Cl)cc1 |  | > 100 |  | 81.5 |  | 31.7 |  | 32.4 |  | 47.9 |  | 88.7 |  | > 100 |  | > 100 |  | 44.8 |  | 24.4 |
| COC(=O)[C@]1(c2cc3ccccc3n2S(=O)(=O)c2ccccc2)CC2CN(C(C)=O)C1CC2=O (some centres undefined) |  | 13.1 |  | > 43.8 |  | 5.22 |  | 3.8 |  | 6.69 |  | 4.26 |  | 3.39 |  | 12.3 |  | > 20.9 |  | 3.27 |
| COC(=O)NCCc1[nH]nc2c1C(=O)C=C(N1CCOCC1)C2=O |  | > 100 |  | > 100 |  | > 100 |  | > 100 |  | > 100 |  | > 100 |  | > 100 |  | > 100 |  | > 100 |  | > 100 |
